Assay results as given in patent publication US20240245696A1, “INHIBITORS OF DNA PK AND USES THEREOF” (BioVentures, LLC, priority 2017, published 2024).

Legend:
[1] = tested on: IL-2; assay: qPCR of IL-2 expression in stimulated Jurkat cells; assay type: cell-based, human; conditions: PHA+PMA stimulation
Protocol: (§1) Evaluation of PD-1 and IL-2 expression: The effect of NU7441 on the expression of PD-1, a protein with immunosuppressant function, and IL-2 was examined in Jurkat cells following stimulation with PHA+PMA and treatment with the inhibitor NU7441. qPCR analysis was performed using primers specific for PD1 and IL-2 sequences.

[2] = tested on: PD-1; assay: qPCR of PD-1 expression in stimulated Jurkat cells; assay type: cell-based, human; conditions: PHA+PMA stimulation
Protocol: as §1

**Q.** `C=CC[C@@H]1/C=C(\C)C[C@H](C)C[C@H](OC)[C@H]2O[C@@](O)(C(=O)C(=O)N3CCCC[C@H]3C(=O)O[C@H](/C(C)=C/[C@@H]3CC[C@@H](O)[C@H](OC)C3)[C@H](C)[C@@H](O)CC1=O)[C@H](C)C[C@@H]2OC` [FK506, Tacrolimus] was tested. Which IL-2 expression [1] did it give?
**A.** reduced

**Q.** What about the “expression level of PD-1” value [2] of the same molecule?
**A.** significantly reduce expression
